Laboratory results published in PMC10033419, “Blocking NS3–NS4B interaction inhibits dengue virus in non-human primates” (Nature, 2023).
“And” between values parts separate entries of the source, which are not always exact repeats. Identical values can stand only once. Like-named read-outs stand apart in the source and are kept apart here.

Tests used:
[1] = Toxicity by high-content imaging; format: cell-based, Aedes albopictus; conditions: Aedes albopictus, C6/36 cells
Procedure: (§1) A potential toxic effect on host cells was tested in parallel, while omitting virus infection, using the MTS/PMS method (Promega) for Vero cells, or by high-content imaging for C6/36 cells, as described previously. […] RT–qPCR data were analysed using the QuantStudio 12K Flex software (v.1.2.3) or SDS v.1.2 Applied Biosystems software. Inhibition values for antiviral molecules were plotted using KaleidaGraph plotting software (v.4.03, Synergy Software).

[2] = tested on: C6/36 cells; assay: Toxicity by high-content imaging; format: cell-based, Aedes albopictus; conditions: C3/36 cells; read-out: CC50, individual values
Procedure: as §1

[3] = tested on: DENV-2 RL strain; assay: In vivo kinetics study, low viral inoculum (10^2 PFU); conditions: for In vivo kinetics, Mean of Log10: group mean; for In vivo kinetics, Copies/ml / In vivo kinetics, Log10 of Copies/ml: individual mice

## COc1cc(N[C@H](C(=O)c2c[nH]c3ccc(OC(F)(F)F)cc23)c2ccc(Cl)cc2OC)cc(S(C)(=O)=O)c1 [JNJ-1802]
[1]; C3/36 cells, mean, read-out: CC50 Mean
  CC50: 14.4 µM
[1]; C3/36 cells, read-out: CC50, individual values
  CC50: 13.7 µM
[1]; C6/36, read-out: CC50
  CC50: 14.4 ± 1.1 µM
[2]
  CC50: 15.2 µM
[3]; 0.2 mg per kg per day b.i.d.
  viral load vs vehicle: No significant reduction in viral load
[3]; 0.2 mg/kg/d, day 1 p.i.
  In vivo kinetics, Mean of Log10: 2.59 Log10
  In vivo kinetics, Copies/ml: 3.93E+02 Copies/ml
  In vivo kinetics, Log10 of Copies/ml: 2.5940 Log10
[3]; 0.2 mg/kg/d, day 2 p.i.
  In vivo kinetics, Copies/ml: 3.93E+02 Copies/ml and 5.27E+03 Copies/ml
  In vivo kinetics, Log10 of Copies/ml: 2.5940 Log10 and 3.7220 Log10
[3]; 0.2 mg/kg/d, day 3 p.i.
  In vivo kinetics, Mean of Log10: 3.28 Log10
  In vivo kinetics, Copies/ml: 7.26E+03 Copies/ml and 3.93E+02 Copies/ml and 6.17E+04 Copies/ml
  In vivo kinetics, Log10 of Copies/ml: 3.8609 Log10 and 2.5940 Log10 and 3.9537 Log10 and 4.7902 Log10
[3]; 0.2 mg/kg/d, day 4 p.i.
  In vivo kinetics, Mean of Log10: 3.19 Log10
  In vivo kinetics, Copies/ml: 3.93E+02 Copies/ml and 1.02E+04 Copies/ml and 4.96E+03 Copies/ml and 2.86E+03 Copies/ml and 9.30E+03 Copies/ml
  In vivo kinetics, Log10 of Copies/ml: 2.5940 Log10 and 4.0085 Log10 and 3.6952 Log10 and 3.4564 Log10 and 3.9686 Log10
[3]; 0.2 mg/kg/d, day 5 p.i.
  In vivo kinetics, Mean of Log10: 5.08 Log10
  In vivo kinetics, Copies/ml: 8.17E+04 Copies/ml and 5.79E+05 Copies/ml and 1.02E+05 Copies/ml
  In vivo kinetics, Log10 of Copies/ml: 4.9120 Log10 and 5.7623 Log10 and 4.6527 Log10 and 5.0605 Log10 and 5.0084 Log10
[3]; 2 mg/kg/d, day 1 p.i.
  In vivo kinetics, Mean of Log10: 2.59 Log10
  In vivo kinetics, Copies/ml: 3.93E+02 Copies/ml
  In vivo kinetics, Log10 of Copies/ml: 2.5940 Log10
[3]; 2 mg/kg/d, day 2 p.i.
  In vivo kinetics, Mean of Log10: 2.59 Log10
  In vivo kinetics, Copies/ml: 3.93E+02 Copies/ml
  In vivo kinetics, Log10 of Copies/ml: 2.5940 Log10
[3]; 2 mg/kg/d, day 3 p.i.
  In vivo kinetics, Mean of Log10: 2.77 Log10
  In vivo kinetics, Copies/ml: 3.93E+02 Copies/ml and 6.33E+03 Copies/ml
  In vivo kinetics, Log10 of Copies/ml: 2.5940 Log10 and 3.8013 Log10
[3]; 2 mg/kg/d, day 4 p.i.
  In vivo kinetics, Mean of Log10: 2.59 Log10
  In vivo kinetics, Copies/ml: 3.93E+02 Copies/ml
  In vivo kinetics, Log10 of Copies/ml: 2.5940 Log10
[3]; 2 mg/kg/d, day 5 p.i.
  In vivo kinetics, Mean of Log10: 2.59 Log10
  In vivo kinetics, Copies/ml: 3.93E+02 Copies/ml
  In vivo kinetics, Log10 of Copies/ml: 2.5940 Log10
[3]; 20 mg/kg/d, day 1 p.i.
  In vivo kinetics, Mean of Log10: 2.59 Log10
  In vivo kinetics, Copies/ml: 3.93E+02 Copies/ml
  In vivo kinetics, Log10 of Copies/ml: 2.5940 Log10
[3]; 20 mg/kg/d, day 2 p.i.
  In vivo kinetics, Mean of Log10: 2.59 Log10
  In vivo kinetics, Copies/ml: 3.93E+02 Copies/ml
  In vivo kinetics, Log10 of Copies/ml: 2.5940 Log10
[3]; 20 mg/kg/d, day 3 p.i.
  In vivo kinetics, Mean of Log10: 2.75 Log10
  In vivo kinetics, Copies/ml: 3.93E+02 Copies/ml and 6.76E+03 Copies/ml
  In vivo kinetics, Log10 of Copies/ml: 2.5940 Log10 and 3.8298 Log10
